Target: T1, human Farnesoid X Receptor (FXR) ligand binding domain (GST-FXR LBD) (Homo sapiens, UniProt Q96RI1)
T1 construct: purchased Invitrogen
T1 sequence (Q96RI1 193-472 isoform Q96RI1-2): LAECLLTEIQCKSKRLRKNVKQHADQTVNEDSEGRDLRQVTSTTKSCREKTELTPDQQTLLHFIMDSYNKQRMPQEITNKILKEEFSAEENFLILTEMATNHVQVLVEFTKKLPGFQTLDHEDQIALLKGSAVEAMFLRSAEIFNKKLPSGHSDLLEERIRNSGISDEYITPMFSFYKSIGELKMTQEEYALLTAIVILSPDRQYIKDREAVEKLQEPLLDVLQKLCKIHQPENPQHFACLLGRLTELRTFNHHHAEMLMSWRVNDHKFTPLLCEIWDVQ
Test: Human GST-FXR LBD co-activator interaction assay (FXR HTRF assay)
Assay type: biochemical
Details: GST-FXR LBD interaction with biotin-labeled SRC-1 peptide, FRET, response relative to GW4064, read-out: FXR coactivator interaction assay (HTRF)

Compound	EC50
Cc1cccc2c1OCc1c(C(=O)N(CC(=O)Nc3cccc(C(=O)O)c3)Cc3ccccc3F)nn(C)c1-2 [Compound 6, 3-(2-(N-(2-fluorobenzyl)-1,6-dimethyl-1,4-dihydrochromeno[4,3-c]pyrazole-3-carboxamido)acetamido)benzoic acid]	2.4 nM
Cc1cc(C(=O)O)cc(C)c1OCCN(CC1CCCC1)C(=O)c1nn(C)c2c1COc1ccc(Cl)cc1-2 [Compound 49, 4-(2-(8-chloro-N-(cyclopentylmethyl)-1-methyl-1,4-dihydrochromeno[4,3-c]pyrazole-3-carboxamido)ethoxy)-3,5-dimethylbenzoic acid]	17 nM
Cn1nc(C(=O)N(CCOc2c(F)cc(C(=O)O)cc2F)Cc2ccccc2F)c2c1-c1cc(Cl)ccc1OC2 [Compound 50, 4-(2-(8-chloro-N-(2-fluorobenzyl)-1-methyl-1,4-dihydrochromeno[4,3-c]pyrazole-3-carboxamido)ethoxy)-3,5-difluorobenzoic acid]	11 nM
Cc1ccc(C(=O)O)cc1NC(=O)CN(Cc1ccccc1F)C(=O)c1nn(C)c2c1COc1ccc(Cl)cc1-2 [Compound 39]	5.9 nM
Cn1nc(C(=O)N(CCOc2ccc(C(=O)O)cc2F)Cc2ccccc2)c2c1-c1cc(F)c(F)cc1OC2 [Compound 57, 4-(2-(N-benzyl-7,8-difluoro-1-methyl-1,4-dihydrochromeno[4,3-c]pyrazole-3-carboxamido)ethoxy)-3-fluorobenzoic acid]	30 nM
Cn1nc(C(=O)N(CC(=O)Nc2cc(C(=O)O)ccc2F)Cc2ccccc2F)c2c1-c1ccccc1OC2 [Compound 16, 4-fluoro-3-(2-(N-(2-fluorobenzyl)-1-methyl-1,4-dihydrochromeno[4,3-c]pyrazole-3-carboxamido)acetamido)benzoic acid]	3.4 nM
Cn1nc(C(=O)N(Cc2ccc(C(=O)O)nc2)Cc2cccc(F)c2)c2c1-c1cc(Cl)ccc1OC2 [Compound 87, 5-((8-chloro-N-(3-fluorobenzyl)-1-methyl-1,4-dihydrochromeno[4,3-c]pyrazole-3-carboxamido)methyl)picolinic acid]	28 nM
Cn1nc(C(=O)N(CC(=O)Nc2cc(C(=O)O)ccc2F)Cc2ccccc2)c2c1-c1cc(F)c(F)cc1OC2 [Compound 19, 3-(2-(N-benzyl-7,8-difluoro-1-methyl-1,4-dihydrochromeno[4,3-c]pyrazole-3-carboxamido)acetamido)-4-fluorobenzoic acid]	0.5 nM

Continued, values first:

EC50	Compound
2.6 nM	Cn1nc(C(=O)N(CCOc2c(F)cc(C(=O)O)cc2F)Cc2ccccc2)c2c1-c1cc(Cl)ccc1OC2 [Compound 52, 4-(2-(N-benzyl-8-chloro-1-methyl-1,4-dihydrochromeno[4,3-c]pyrazole-3-carboxamido)ethoxy)-3,5-difluorobenzoic acid]
0.74 nM	Cn1nc(C(=O)N(CC(=O)Nc2cc(C(=O)O)ccc2F)Cc2ccccc2)c2c1-c1cc(F)ccc1OC2 [Compound 32, 3-(2-(N-benzyl-8-fluoro-1-methyl-1,4-dihydrochromeno[4,3-c]pyrazole-3-carboxamido)acetamido)-4-fluorobenzoic acid]
9.6 nM	Cn1nc(C(=O)N(Cc2ccccc2)Cc2ccc(C(=O)O)cc2F)c2c1-c1cc(Cl)ccc1OC2 [Compound 76, 4-((N-benzyl-8-chloro-1-methyl-1,4-dihydrochromeno[4,3-c]pyrazole-3-carboxamido)methyl)-3-fluorobenzoic acid]
3.5 nM	Cn1nc(C(=O)N(Cc2ccc(C(=O)O)cc2)Cc2cccc(F)c2)c2c1-c1cc(Cl)ccc1OC2 [Compound 95, 4-((8-chloro-N-(3-fluorobenzyl)-1-methyl-1,4-dihydrochromeno[4,3-c]pyrazole-3-carboxamido)methyl)benzoic acid]
29 nM	Cc1nc(C(=O)O)ccc1CN(Cc1cccc(F)c1)C(=O)c1nn(C)c2c1COc1ccc(Cl)cc1-2 [Compound 99, 5-((8-chloro-N-(3-fluorobenzyl)-1-methyl-1,4-dihydrochromeno[4,3-c]pyrazole-3-carboxamido)methyl)-6-methylpicolinic acid]
40 nM	Cn1nc(C(=O)N(CCOc2ccc(C(=O)O)cc2F)Cc2ccccc2)c2c1-c1cc(F)ccc1OC2 [Compound 56, 4-(2-(N-benzyl-8-fluoro-1-methyl-1,4-dihydrochromeno[4,3-c]pyrazole-3-carboxamido)ethoxy)-3-fluorobenzoic acid]

— US11021446B2 (NOVARTIS AG, priority 2013, dated 2021)
